Legend:
Experiment in all cases: relative viability (nuclei count vs DMSO), 5 days (fraction); higher = more cells survive
Shikonin + Navitoclax = compound: CC(C)=CC[C@@H](O)C1=CC(=O)c2c(O)ccc(O)c2C1=O [Shikonin] + CC1(C)CCC(c2ccc(Cl)cc2)=C(CN2CCN(c3ccc(C(=O)NS(=O)(=O)c4ccc(N[C@H](CCN5CCOCC5)CSc5ccccc5)c(S(=O)(=O)C(F)(F)F)c4)cc3)CC2)C1 [Navitoclax] (partner 0.5 µM)
In short: (§1)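 For relative viability, nuclei counts in treated wells were divided by those in vehicle wells. Lung cancer cell lines had been pin-tool dosed in 1536-well plates the day after seeding and cultured for 5 days, then fixed and stained in one step (final 0.05% Triton X-100, 1% formaldehyde, 1 ug/ml Hoechst) and imaged at 4×. Doses were one drug alone or a fixed anchor-drug dose plus five library-drug doses (not always all listed) in √10 steps, and values are duplicate-plate medians.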

Shikonin + Foretinib = compound: CC(C)=CC[C@@H](O)C1=CC(=O)c2c(O)ccc(O)c2C1=O [Shikonin] + COc1cc2c(Oc3ccc(NC(=O)C4(C(=O)Nc5ccc(F)cc5)CC4)cc3F)ccnc2cc1OCCCN1CCOCC1 [Foretinib] (partner 0.25 µM)
In short: as §1

[1] = compound: CC(C)N(CCCNC(=O)Nc1ccc(C(C)(C)C)cc1)C[C@H]1O[C@@H](n2ccc3c(N)ncnc32)[C@H](O)[C@@H]1O
In short: (§2)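 After an overnight hold at 37 °C, lung cancer cell lines in 1536-well plates were pinned with five library-drug doses (not always all listed), each √10 from the next, on vehicle-anchored plates. The cells stayed 5 days without fresh medium, then a one-step fix, permeabilisation and Hoechst stain preceded 4× imaging and MetaXpress nuclear counts. A plate passed only with control CV under 25% and at least one doubling. Viability is the median, over plates, of treated-well nuclei relative to vehicle-well nuclei.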

Shikonin = compound: CC(C)=CC[C@@H](O)C1=CC(=O)c2c(O)ccc(O)c2C1=O [Shikonin]
In short: as §2

Cell Line	relative viability (Shikonin + Navitoclax; first compound 0.01 µM)	relative viability (Shikonin + Navitoclax; first compound 0.1 µM)	relative viability (Shikonin + Navitoclax; first compound 0.3162 µM)	relative viability (Shikonin + Navitoclax; first compound 1 µM)	relative viability (Shikonin + Foretinib; first compound 0.01 µM)	relative viability (Shikonin + Foretinib; first compound 0.1 µM)	relative viability (Shikonin + Foretinib; first compound 0.3162 µM)	relative viability (Shikonin + Foretinib; first compound 1 µM)	relative viability ([1]; 0.08 µM)	relative viability ([1]; 0.253 µM)	relative viability ([1]; 0.8 µM)	relative viability ([1]; 2.53 µM)	relative viability ([1]; 8 µM)	relative viability (Shikonin; 0.01 µM)	relative viability (Shikonin; 0.1 µM)	relative viability (Shikonin; 0.3162 µM)	relative viability (Shikonin; 1 µM)
NCI-H1734	0.941	0.83	0.949	0.74	0.762	0.681	0.869	0.915	0.926	0.804	0.962	0.949	0.916	0.935	1.15	1.02	0.991
LXF-289	1.01	0.873	0.96	0.967	0.987	1.02	0.998	0.972	0.97	1.03	0.923	1.03	0.95	1.08	0.999	1.08	0.992
H3255	0.454	0.695	0.519	0.584	0.851	0.876	0.869	0.856	0.876	0.929	0.919	0.933	0.893	0.978	1.06	1.05	1.02
201T	1.2	1.26	1.18	1.19	1.07	1.15	1.19	1.25	1	1.02	0.746	0.981	1.02	1	1.06	1.02	1.09
NCI-H2228	0.799	0.846	0.911	0.895	0.824	0.619	0.895	0.806	0.925	1	0.903	0.949	1.09	1.07	0.991	1.12	1.17
HOP-62	1.05	1.15	1.01	1.04	1.28	1.25	1.28	1.28	1.04	1.06	0.856	0.939	0.879	1.15	1.11	1.23	1.02
CAL-12T	1.29	1.3	1.32	1.22	1.02	1.08	1.23	1.16	0.937	0.906	0.992	0.969	0.938	1.03	1.07	0.981	0.991
NCI-H647	0.991	0.886	1.25	1.02	1.29	1.46	1.51	1.31	0.912	0.831	0.812	0.955	0.864	1.07	1.08	1.08	0.9
NCI-H1755	1.04	0.988	1.14	1.07	0.932	1.02	0.967	0.956	1.01	0.944	0.856	0.926	0.913	1.03	1.01	1.12	1
NCI-H2085	1.08	1.09	1.13	0.664	0.851	1.06	0.996	0.753	0.93	0.905	1.03	1.02	0.983	0.992	1.05	0.985	0.983
NCI-H2023	1.03	1.06	1.03	0.97	0.921	0.863	0.887	0.931	0.955	0.864	0.977	0.931	0.846	1.05	1.17	1.19	0.972
